Data: patent US9586993B2, “CD44v6-derived peptides for treating pancreatic cancer” (AMCURE GMBH, priority 2012, dated 2017)
“Also recorded” adds a separate entry of the source. No end group written: not given here. *: point of attachment. DOTA = O=C(O)CN1CCN(CC(=O)O)CCN(CC(=O)*)CCN(CC(=O)O)CC1; PEG2000 = polyethylene glycol, 2000 Da; Myristoyl = CCCCCCCCCCCCCC(=O)*

Assays:
[1] = test system: L3.6p1 pancreatic carcinoma cells; experiment: Human orthotopic model, L3.6p1 cells in the pancreas of nude mice; assay type: in vivo, mouse; conditions: for metastasis formation (liver): 20 μg per injection i.p. three times per week; for metastasis formation (liver) / outgrowth / size of the primary tumor: start one week after implantation; for outgrowth / size of the primary tumor: 20 μg per injection i.p. three times per week for three weeks
Description: In the case of the human orthotopic model, L3.6p1 pancreatic carcinoma cells (passage 24-26) were suspended in Hank's balanced salt solution (Invitrogen, Karlsruhe, Germany) after trypsinization. The cells were injected orthotopically in the pancreas of male nude mice as described (Bruns C J et al. (1999) Neoplasia 1(1):50-62). Two groups of 15 mice each were injected i.p. 7 days later with either the human v6 peptide respectively rat control peptide (20 μg). For all experiments described and depicted herein either the rat 14mer control peptide or the human 14mer peptide were used. All experiments were then repeated with the rat 5mer control peptide or the human 5mer peptide (N-R-W-H-E, SEQ ID NO: 2). […] The injection was repeated three times per week for 21 days. Two days after the last treatment the animals were killed.
(§1) 7 μm thick paraffin sections were deparaffinized and rehydrated. For P-Met staining antigen unmasking was achieved by boiling the slides in 1 mM EDTA pH 8.0 followed by incubation for 15 minutes at a sub-boiling temperature, for CD31 staining the sections were treated with Proteinase K (8 μg/ml) for 10 min at 37° C. For immunofluorescence staining of P-Met, unspecific binding was blocked with 5% goat serum (DAKO, Glostrup, Denmark) (diluted in 1×PBS/0.3% Triton X-100) for 60 minutes. In the case of immunohistochemistry, endogenous peroxidases were at first blocked with 3% H2O2 in PBS followed by incubation with biotin blocking system (Dako, Glostrup, Denmark) and then unspecific binding was inhibited by incubation with 5% FCS in PBS. The sections were incubated with the P-Met antibody (D26, dilution 1:50 in 1×PBS/1% BSA/0.3% Triton X-100), Met antibody (C-28, dilution 1:50), GFP antibody (sc-101525, dilution 1:50) or antibody (5 μg/ml) over night or VFF18 (5 μg/ml) o/n at 4° C. After washing in PBS the sections were incubated with Alexa Fluor R 546 goat anti-rabbit (in case of immunofluorescence P-Met and Met staining, dilution 1:500) or a biotinylated secondary antibody (for immunohistochemical stainings rabbit anti-rat antibody for VFF18 and CD31, goat anti-rabbit for P-Met, cleaved Caspase-3 and cleaved Caspase-8 and rabbit anti-mouse for GFP, dilution 1:500) for 45 minutes. For DAB (3,3′-diaminobenzidine) staining the sections were treated with a streptavidin-peroxidase conjugate (Dako, Glostrup, Denmark) and developed with DAB substrate system (3,3′-diaminobenzidine; Biozol, Eching, Germany) For immunofluorescence DAPI was used for nuclear staining.
The three CD44v6 specific compounds (v6 5mer, PEG840-v6 5mer and PEG2000-v6 5mer of human origin) and a control peptide were applied in three concentrations (2 μg, 20 μg, 200 μg per injection) three times per week i.p. for 4 weeks. One week before start of the treatment the L3.6p1 tumor cells were orthotopically implanted into nude mice.
Animals were implanted orthotopically with L3.6p1 cells. Tumor growth was allowed for one week before the treatment with the linear v6 14mer, the cyclic v6 8mer as well as the control peptide (rat v6 14mer) was started. All peptides were injected three times per week at a concentration of 0.2, 2 and 10 μg per injection for 3 weeks. At the end of the treatment animals were sacrificed.
A comparison of different CD44v6 peptide derivatives was performed in animals bearing a orthotopic L3.6p1 tumor. 10 groups of 5 animals each received a dose of 20 μg peptide per injection three times per week for 3 weeks with the compounds listed in Table 4. Three weeks after starting the treatment the animals were sacrificed and analyzed for macroscopic metastases and tumor volume.

[2] = test system: BSp73ASs6 cells; experiment: Rat syngeneic model, subcutaneous BSp73ASs6 tumors, metastasis formation; assay type: in vivo; conditions: 200 μg per injection three times a week; for metastasis (axillary lymph nodes and lungs): intra-tumoral or intravenously, start one week after cell injection; for outgrowth of primary tumors: 28 days
Description: In the case of the rat syngeneic model, 1×10^6 pancreatic cells (BSp73AS and its transfectants) were subcutaneously injected into the right posterior flank of the animals. Tumors developed for four weeks. During this time period animals injected with BSp73ASs6 cells expressing Met-shRNA or control-shRNA received doxycycline in the drinking water. At the end of the experiment, primary tumors were isolated. Lungs and axillary lymph nodes were analyzed. The tissues were incubated for 24 h in a zinc-fixative (0.5 g calcium acetate, 5.0 g zinc acetate, 5.0 g zinc chloride, in 1 L 0.1 M Tris pH 7.4) and embedded in paraffin for further analysis. In case of peptide or antibody treatment tumors developed for one week before the first treatment. Where indicated, animals received 200 μg of peptide or antibody per injection three times per week for four weeks. Tumor growth was monitored weekly using a caliper Animals were killed at day 28 or 30 after start of the treatment.
For histomorphological analysis paraffin-embedded sections of lungs were stained with hematoxylin and eosin and periodic acid-Schiff (H&E or PAS). Serial sections of the whole tissue blocks were examined by analyzing slices every 20 μm; in each slice, the presence and the extension of the metastatic deposit was assessed, according to the procedure routinely used by pathologists to evaluate the presence of micrometastases.
Rat peptides had the sequences KEKWFENEWQGKNP (SEQ ID NO: 10) and NEWQG (SEQ ID NO: 11). BSp73ASs6 cells were subcutaneously injected into syngeneic rats and rat CD44v6 peptides of SEQ ID NO: 10 or SEQ ID NO: 11 (or mouse control peptides) or the CD44v6 antibody (or IgGs as a control) were injected intra-tumoral or intravenously three times a week. […] This is compatible with the fact that also BSp73AS cells or BSp73ASv1-10Δv6 cells can induce the formation of primary tumors similarly to the v6 transfectants.

[3] = test system: BSp73ASs6 lung metastases; experiment: Apoptosis in established lung metastases (cleaved Caspase-3 and Caspase-8 staining); assay type: in vivo, rat; conditions: for apoptotic cells in lung metastases (cleaved Caspase 3): injection every second day from three weeks after cell injection
Description: as §1
One hypothesis for the disappearance of metastases is that the peptides induce apoptosis of CD44v6-expressing metastatic cells in the secondary organs. In order to test this hypothesis, the experiment described above using the BSp73ASs6 cells was repeated. The cells were injected subcutaneously in syngeneic rats and the tumor was allowed to develop for three weeks. After that time the animals were separated in two groups of 10 animals that were injected either with the specific rat CD44v6 peptide or with the control peptide (mouse) every second day. One day following each injection of the peptide, the lungs of one animal were removed and apoptosis was measured using an antibody that detects the cleaved form of Caspase 3. […] From these experiments, it is concluded that the CD44v6 peptide induces apoptosis of metastatic cells.
To discriminate whether the intrinsic pathway characterized by the release of mitochondrial proteins or the extrinsic pathway activated by ligand-bound death receptors for apoptosis was induced by the v6 peptide the expression of cleaved caspase-8 in the metastases treated with the v6 peptide was investigated. […] From these experiments we conclude that the CD44v6 peptide induces apoptosis of metastatic cells via the extrinsic apoptotic pathway.

[4] = test system: Met activation and downstream signaling to ERK; experiment: HGF-induced activation of Met and ERK in L3.6p1 cells (western blot); assay type: cell-based, human; conditions: HGF 10 ng/ml
Description: Serum-starved cells (24 hours) were induced with the growth factor HGF (10 ng/mL) at 37° C. for 5 minutes. Where indicated, the cells were treated with peptides (100 ng/ml) prior to induction at 37° C. for 10 minutes (100 ng/mL CD44v6 peptide or control peptide). Following the induction with HGF, cells were washed with ice-cold phosphate-buffered saline (PBS). To detect activated Met and Erk, cells were lysed in sodium dodecyl sulfate (SDS)-sample buffer containing 100 mM dithiothreitol (DTT), boiled and subjected to western blot analysis using antibodies against phospho-Met and ERK. The loading controls were performed on the same blot after stripping (62.5 mM Tris, pH 6.8, 2% SDS, 0.8% DTT) by probing with the Met respectively ERK antibody. Blots were stained using the enhanced chemiluminescence system (Thermo Fisher Scientific, Schwerte, Germany). Bands in western blot analysis were quantified with the program Image J (National Institutes of Health).
To expand the studies to human pancreatic tumors, the highly metastatic human pancreatic carcinoma cells L3.6p1 (Bruns, et al. Neoplasia (1999), 1(1):50-62) were investigated. These cells originate from the […] cells that have been passaged several times in the liver and the pancreas, a step that rendered them more and more metastatic. It was confirmed that Met is dependent on CD44v6 for its activation and signaling in these cells (FIG. 4A). The L3.6p1 cells were treated with HGF in the presence or absence of a human v6 peptide of SEQ ID NO: 2 or SEQ ID NO:6 and Met activation and downstream signaling to ERK was measured.

[5] = listed as rat-specific peptide (ctrl peptide)

DOTA-keqwfGNRWHEGyr [DOTA CD44v6-14 [daa7]]
metastasis formation (liver) [1]: decrease of metastatic spreading

mouse control peptides: mouse CD44v6 peptide used as control in the rat system (WFQNGWQGKNP) [reference compound]
metastasis (axillary lymph nodes and lungs) [2]: numerous metastases were detected in the lungs | lung metastasis at day twenty-two ([3]; injection every second day): metastatic spreading was evident in the lungs | apoptotic cells in lung metastases (cleaved Caspase 3) [3]: No apoptosis at all was detected

PEG840-KEQWFGNRWHEGYR-OH [PEG840 14-mer]
outgrowth / size of the primary tumor [1]: significant reduction in tumor growth | metastasis formation (liver) [1]: decrease of metastatic spreading

NEWQG [rat 5mer, rat CD44v6 5mer peptide]
metastasis and micro-metastasis in lung sections (PAS and H&E staining) [2]: neither metastasis nor micro-metastasis could be detected | outgrowth of primary tumors [2]: not influenced by either treatment | metastasis (axillary lymph nodes and lungs) [2]: completely inhibited metastasis | inhibition of HGF-induced activation (phosphorylation) of Met and ERK [4]: had no influence on receptor activation and signal transduction | results in the human orthotopic model compared with the 14mer peptides ([1]; 20 μg i.p. three times per week for 21 days): same results as for the 14mer peptides were observed

Myr-Y-cy[KGNRWHEG] (Myristoyl-YKGNRWHEG; also: cyclic, closure not given here, Myr-Tyr attached, site not given here) [Myr-Y-cycl 8 mer]
outgrowth / size of the primary tumor [1]: significant reduction in tumor growth | metastasis formation (liver) [1]: decrease of metastatic spreading

NRWHE [human 5mer, NRWHE]
side effects in the animals ([1]; 200 μg per injection i.p. three times per week for 4 weeks): did not lead to side effects

Myr-KEQWFGNRWHEGYR (Myristoyl-KEQWFGNRWHEGYR) [Myristoyl-14-mer]
outgrowth / size of the primary tumor [1]: no inhibitory effect on tumor growth

PEG2000-KEQWFGNRWHEGYR-OH [PEG2000 14-mer]
outgrowth / size of the primary tumor [1]: strongest reduction of tumor size | outgrowth / size of the primary tumor ([1]; listed as PEGylated 14mer (PEG 2000)): significant reduction in tumor growth | metastasis formation (liver) [1]: decrease of metastatic spreading

DOTA-cy[KRWHE] [cycl 5 mer]
outgrowth / size of the primary tumor [1]: strongest reduction of tumor size | metastasis formation (liver) [1]: complete inhibition of metastasis

{DOTA}-KEQWFGNRWHEGYR [DOTA CD44v6-14 [r^14]]
metastasis formation (liver) [1]: complete inhibition of metastasis

KEKWFENEWQGKNP [rat 14mer, rat CD44v6 14mer peptide; control in human systems]
metastasis and micro-metastasis in lung sections (PAS and H&E staining) [2]: neither metastasis nor micro-metastasis could be detected | outgrowth of primary tumors [2]: not influenced by either treatment | metastasis (axillary lymph nodes and lungs) [2]: completely inhibited metastasis | inhibition of HGF-induced activation (phosphorylation) of Met and ERK [4]: had no influence on receptor activation and signal transduction | outgrowth / size of the primary tumor [1, 5]: had no influence on metastasis formation or on growth of the primary tumor | metastasis formation (liver) [1, 5]: neither any influence on metastasis formation; also recorded: had no influence on metastasis formation or on growth of the primary tumor | apoptosis twelve days after injection ([3]; cleaved Caspase 3): less apoptosis was observed | time of maximum of apoptosis ([3]; cleaved Caspase 3, injection every second day): eight days after the first injection | cleaved caspase-8 in lung metastases ([3]; injection every second day): kinetic of activation of caspase-8 similar to the one obtained for caspase-3 | lung metastasis at day twenty-two ([3]; injection every second day): no metastasis could be detected anymore | apoptotic cells in lung metastases (cleaved Caspase 3) [3]: detected as early as three days after the first injection
